According to ChEMBL document CHEMBL3758167, “4H-Thieno[3,2-c]chromene based inhibitors of Notum Pectinacetylesterase” (Bioorg Med Chem Lett, 2016):

What was measured:
[1] = in vivo; details: mouse, po, 10 mg/kg
[2] = in vivo; details: mouse, po, 10 mg/kg; remark: listed apart in the source
[3] = in vivo; details: mouse, iv, 1 mg/kg
[4] = in vivo; details: mouse, iv, 1 mg/kg; remark: listed apart in the source
[5] = in vivo; details: mouse, po, 10 mg/kg; remark: listed apart in the source

Cmax [1]: 64 µM
AUC [2]: 158 µM·h
clearance [3]: 2.4 mL/min/kg
Vd [4]: 0.57 L/kg
bioavailability [5]: 52%
SMILES: O=C(O)c1cc2c(s1)-c1ccccc1CC2
